“Also recorded” adds a separate entry of the source. Counter-ions that a name gives are not always drawn. Like-named read-outs stand apart in the source and are kept apart here.
Experiments:
AtITPK1 [1] = test system: T1, AtITPK1; details: cited from earlier work
T1 construct: made in house

StITPK1 [2] = target: T2, StITPK1 (Solanum tuberosum, UniProt A4H2J0); test: Kinase assay with ATP, HPLC of products; assay type: biochemical; details: for Product formation (3h) / Product formation (12h): 25°C; for kinase substrate status: with ATP, HPLC
Protocol: (§1) Kinase assays were performed with ATP-regeneration as described for ATP-grasp kinases ITPK1/2 and VIH1/2 [2-3, 27-29], here in 20 mM HEPES pH 6.5, 1 mM MgCl2, 0.5 mM ATP and 1 mM inositol phosphate substrate. The low rate constants for phospho-kinase activity and the low sensitivity of NMR, PAGE and HPLC […]
(§2) [2-3, 27-29], here with or without 4 µM protein for 3h or 12h at 25 °C. Competition/inhibition assays were […]
InsP6, and competitor, typically 0.5 mM, incubated with or without 3 µM protein for 2 h at 25 °C . […]
(§3) 0.5 mM inositol pyrophosphate substrate incubated with 4 µM protein at 25 °C . HPLC analysis and detection of inositol phosphates by complexation with ferric ion was performed as described. Peak area data were analysed with the chromatography Jasco ChromNav v.2 software and x,y data were imported into GraphPad Prism v.6 software (GraphPad Software Inc., San Diego, USA) for plotting of chromatograms without additional processing of the data. […]

AtITPK1 [3] = target: T1, AtITPK1; test: Kinase assay with ATP, HPLC of products; assay type: biochemical, Arabidopsis thaliana; details: for kinase substrate status: with ATP, HPLC
Protocol: as §1
[2-3, 27-29], here with or without 4 µM protein for 3h or 12h at 25 °C. […]
as §3

StITPK1 [4] = target: T2, StITPK1; test: Fluorescence polarization displacement of 2-FAM-InsP5; assay type: binding; details: Cheng-Prusoff with Kd 48 nM
Excerpt: To determine the relative strengths of binding of different inositol phosphate and inositol pyrophosphate substrates of StITPK1 we undertook fluorescence polarization experiments with 2-FAM-InsP5 [35]. […] A saturation curve for binding of 2-FAM-InsP5 to StITPK1 is shown (Figure S5) and displacement curves are shown for diverse inositol phosphates (Figure 2). The structures of these compounds are shown (Figure S1). […]
Fluorescence polarization (anisotropy)
A curve for binding of 2-FAM-InsP5 to StITPK1 was obtained by incubation of 2 nM 2-FAM-InsP5 [1] with increasing concentration (1-500 nM) of StITPK1 in 20 mM HEPES pH 6.5, 1 mM EDTA, 100 mM NaCl, after. Thereafter, displacement assays were performed by titration of inositol phosphate, inositol pyrophosphate […]
or analog thereof with 2 nM 2-FAM-InsP5 and 50 nM StITPK1. Compounds were tested for displacement in a range of 1 nM - 50 µM. Fluorescence polarization was measured in 384-well, black, low-binding plates, Corning product 3573. Binding and displacement curves (anisotropy) were log transformed and fitted to a 4-parameter logistic (in GraphPad Prism v.6 software (GraphPad Software Inc., San Diego, USA). Fitting of the […]
Substituting the value of Kd for KM in the Cheng-Prusoff equation for competitive inhibition: […]
with concentration of 2-FAM-InsP5 [S], yielded Ki with confidence intervals adjusted by linear approximation.
M.; Jamieson, A. G.; Potter, B. V.; Schwabe, J. W., Insights into the activation mechanism of class I HDAC complexes by inositol phosphates. Nat Commun 2016, 7, 11262. […]

AtVIH2 = test system: AtVIH2; parameters: method as in PMID 31436531; details: isolated kinase domain ref 24; cited from earlier work
StITPK1 [5] = target: T2, StITPK1; test: Competition/inhibition of Ins(1,2,3,4,5)P5 5-phospho-kinase activity, HPLC; assay type: biochemical; details: 0.5 mM competing substrate/inhibitor, 1 mM Ins(1,2,3,4,5)P5, 3h experiment
StITPK1 [6] = target: T2, StITPK1; test: Fluorescence polarization saturation binding of 2-FAM-InsP5; details: 2 nM probe, 1-500 nM StITPK1, one-site binding model
Protocol: (§4) Schrödinger, LLC, New York, NY, 2021). All models of the complexes were subsequently energy minimized to convergence using the Prime module of Schrodinger (Schrödinger Release 2022-2: Prime) employing the all atom OPLS force field and the VSGB 2.1 implicit solvent model. Illustrations were generated using the PyMOL Molecular Graphics System, Version 2.5 (Schrödinger, LLC).
as §1, §2
(§5) InsP6, and competitor, typically 0.5 mM, incubated with or without 3 µM protein for 2 h at 25 °C . […] Peak area data were analysed with the chromatography Jasco ChromNav v.2 software and x,y data were imported into GraphPad Prism v.6 software (GraphPad Software Inc., San Diego, USA) for plotting of chromatograms without additional processing of the data.
(§6) Fluorescence polarization (anisotropy) […]
or analog thereof with 2 nM 2-FAM-InsP5 and 50 nM StITPK1. […] Fluorescence polarization was measured in 384-well, black, low-binding plates, Corning product 3573. […]

StITPK1 [7] = target: T2, StITPK1; test: Competition/inhibition of InsP6 5-phospho-kinase activity, HPLC; assay type: biochemical; details: 5 μM inhibitor, 1 mM InsP6
Protocol: Figure 6 Inhibition of StITPK1 phospho-kinase activity by inositol pyrophosphate analogs. […] Reactions were performed for 2h at 30 °C with 3 μM StITPK1, 0.5 mM ATP, 1mM inositol phosphate in the absence or presence of competitor. The extent of inhibition at inhibitor concentration (mM) indicated by number in each column was estimated from the integrated peak areas of substrate and product peaks resolved by HPLC (example HPLC traces are shown in Figure S10). Significant difference at p=0.05 between inhibitor treatments (by One-way ANOVA and Tukey’s multiple comparisons test) is indicated by the absence of a common letter.
as §4, with “LLC). […]” for “LLC).”
as §5, §6

[8] = 2 nM 2-FAM-InsP5, 50 nM StITPK1, pH 6.5, read-out: Ki for displacement of 2-FAM-InsP5

T2 sequence (A4H2J0 entry or part of it): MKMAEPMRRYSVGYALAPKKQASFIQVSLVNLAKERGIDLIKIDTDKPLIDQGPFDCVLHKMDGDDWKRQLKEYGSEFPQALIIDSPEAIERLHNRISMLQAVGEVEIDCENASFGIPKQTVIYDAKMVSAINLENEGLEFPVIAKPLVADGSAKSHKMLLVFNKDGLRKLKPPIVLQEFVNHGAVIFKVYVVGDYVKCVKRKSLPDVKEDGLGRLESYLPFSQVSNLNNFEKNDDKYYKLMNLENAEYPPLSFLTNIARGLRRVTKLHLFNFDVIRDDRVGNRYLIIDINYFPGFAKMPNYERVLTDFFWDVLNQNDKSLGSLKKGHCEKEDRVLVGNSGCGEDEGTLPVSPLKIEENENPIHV

Discrimination between InsP4 enantiomers in favour of Ins(3,4,5,6)P4 (StITPK1 [2]; vs Ins(1,4,5,6)P4) | Discrimination between InsP4 enantiomers in favour of Ins(3,4,5,6)P4 (AtITPK1 [3]; vs Ins(1,4,5,6)P4) | inhibition of 5-PP-InsP5-synthesizing (InsP6 phospho-kinase) activity (StITPK1 [7]) | Ki (StITPK1 [4]; [8]) | SMILES | Kcat for phospho-kinase activity (AtITPK1 [1]; calculated from data ref 20-21, 27) | Product formation (3h) (StITPK1 [2]; 1 mM substrate) | Product formation (12h) (StITPK1 [2]; 1 mM substrate) | Product formation (separate 12h experiment) (StITPK1 [2]; 1 mM substrate, separate 12h experiment) | Kcat (turnover of substrate) (StITPK1 [2]; in the absence of inhibitor, 1 mM substrate, 0.5 mM ATP, pH 6.5) | kinase substrate status (StITPK1 [2]) | kinase substrate status (AtITPK1 [3]) | Ki (StITPK1 [4]; Ki for displacement of 2-FAM-InsP5, 2 nM 2-FAM-InsP5, 50 nM StITPK1, pH 6.5) | turnover number, 1-phospho-kinase activity (AtVIH2) | % inhibition at 3h, Ins(1,2,3,4,5)P5 substrate (StITPK1 [5]) | Kd (StITPK1 [6]) | Vmax relative to InsP6 (AtITPK1 [1])
– | – | – | – | O=P(O)(O)O[C@H]1[C@H](OP(=O)(O)O)[C@@H](OP(=O)(O)O)[C@H](OP(=O)(O)O)[C@@H](OP(=O)(O)O)[C@H]1OP(=O)(O)O [myo-InsP6, myo-inositol 1,2,3,4,5,6-hexakisphosphate] | ~ 1.5 min^-1 | 241 μM/μM protein | 289 μM/μM protein | 220 μM/μM protein | ~ 1.14 min^-1 | generating 5-PP-InsP5; also recorded: strongest phospho-kinase substrate | strongest phospho-kinase substrate | 126 nM | ~ 0.4 min^-1 | 89% | – | –
– | – | – | – | O=C(NCCO[C@H]1[C@@H](OP(=O)(O)O)[C@H](OP(=O)(O)O)[C@@H](OP(=O)(O)O)[C@H](OP(=O)(O)O)[C@H]1OP(=O)(O)O)c1ccc2c(c1)C(=O)OC21c2ccc(O)cc2Oc2cc(O)ccc21 [2-FAM-InsP5, 2-O-(2-(5-fluoresceinylcarboxy)-aminoethyl)-myo-inositol 1,3,4,5,6-pentakisphosphate (triethylammonium salt)] | – | – | – | – | – | – | – | – | – | – | 48 nM | –
~ 200 fold | ~ 200 fold | particularly powerful inhibitor | 716 nM | O=P(O)(O)O[C@H]1[C@H](OP(=O)(O)O)[C@@H](OP(=O)(O)O)[C@@H](O)[C@@H](O)[C@@H]1OP(=O)(O)O [Ins(3,4,5,6)P4, 1D-myo-inositol 3,4,5,6-tetrakisphosphate] | – | – | – | – | – | better substrate than both its enantiomer Ins(1,4,5,6)P4 and InsP6 | – | – | – | – | – | 3 orders of magnitude greater
– | – | – | 162 nM | O=P(O)(O)O[C@H]1[C@@H](OP(=O)(O)O)[C@H](OP(=O)(O)O)[C@@H](OP(=O)(O)OP(=O)(O)O)[C@H](OP(=O)(O)O)[C@H]1OP(=O)(O)O [5-PP-InsP5, 5-diphospho-myo-inositol 1,2,3,4,6-pentakisphosphate] | – | 0 μM/μM protein | 0 μM/μM protein | – | – | not a substrate | not a substrate | – | ~ 1 min^-1 | 82% | – | –

From article PMC10765375, “Crystal structure and enzymology of Solanum tuberosum inositol tris/tetrakisphosphate kinase 1 (StITPK1)” (Biochemistry, 2023)
